According to patent publication US20250269043A1, “TARGETED BIFUNCTIONAL DEGRADERS” (YALE UNIVERSITY, priority 2019, published 2025):
Each block holds one molecule with its values, some of them ahead of it. Square brackets hold non-standard residues; d marks the D form. Peptide text beside a SMILES is read from it. * marks the point of attachment. Sta = CC(C)C[C@H](N)[C@@H](O)CC(=O)O; Isovaleryl = CC(C)CC(=O)*

How the values were obtained:
HepG2 cells [1] = assay: MIF-GN3-mediated endocytosis of Alexa 488-labeled human MIF by HepG2 cells; conditions: for effect of endocytic pathway inhibitors on MIF-GN3-mediated MIF endocytosis: MIF 100 nM, MIF-GN3 200 nM, FIG. 132
Procedure: Human MIF protein was fluorescently labeled with Alexa 488 NHS ester, then incubated with HepG2 cells in the presence of varying levels of MIF-GN3.
The ability of MIF-GN3 to mediate MIF endocytosis over a wide range of target protein concentrations was assessed.
Next, inhibitors of various endocytic pathways were utilized to determine if MIF-GN3 mediates MIF endocytosis in a manner consistent with ASGPR (FIG. 132).

HepG2 cells [2] = assay: DNP-GN3-mediated endocytosis of fluorescently labeled α-DNP antibody by adherent HepG2 cells; assay type: cell-based, human; conditions: sodium azide and 2-deoxyglucose as combined treatment; FIG. 89
Procedure: It was next explored whether DNP-GN3 mediates the endocytosis of fluorescently labeled α-DNP antibody.
To explore the cellular mechanism of antibody uptake, cells were treated with chemical inhibitors of several endocytic pathways (FIG. 89).

HepG2 cells [3] = assay: Effect of protease inhibitors on degradation of endocytosed α-DNP antibody in HepG2 cells (50 kDa/25 kDa band ratio); conditions: for inhibition of α-DNP antibody degradation (triplicate): 12 hours, each concentration in triplicate, ALLN 100 and 10 μM, FIG. 117; for inhibition of α-DNP antibody degradation (initial screening): leupeptin 20 and 80 μM, E64 50 and 10 μM, antipain 50 and 100 μM, aprotinin 400 or 800 nM, PMSF 100 or 500 μM, AEBSF 10 μM, ALLN 10 μM, FIG. 116
Excerpt: The ratiometric comparison of band intensity at 50 kDa divided by the intensity of the 25 kDa was used as a measure of α-DNP antibody degradation. As endocytosed α-DNP antibody is degraded in cells, this ratio decreases. […] Each ratiometric measurement is produced using only the protein fragments present in the cell lysate.
Protease inhibitors which inhibit α-DNP antibody degradation are expected to cause an accumulation of fluorescent intensity at 50 kDa and a decrease in fluorescent intensity at 25 kDa.
Next it was studied whether the inhibition of α-DNP antibody degradation by protease inhibitors was reproducible. Each protease inhibitor concentration was tested in triplicate in HepG2 cells (FIG. 117).
Pepstatin at a concentration 15 μM was included as a negative control.

human MIF = molecular target: T1, human MIF (Homo sapiens, UniProt P14174); assay: Depletion of human MIF from cell culture supernatant (sandwich ELISA); assay type: cell-based; conditions: for depletion of human MIF from cell culture supernatant / depletion of MIF from cell culture supernatant, optimized ASGPR-binding motifs: human MIF 100 nM; for depletion of human MIF from cell culture supernatant: FIG. 128A; for depletion of MIF from cell culture supernatant, optimized ASGPR-binding motifs: MIF-AF2 at 40 nM, 200 nM and 1 μM
T1 sequence (P14174 2-115 limits assumed): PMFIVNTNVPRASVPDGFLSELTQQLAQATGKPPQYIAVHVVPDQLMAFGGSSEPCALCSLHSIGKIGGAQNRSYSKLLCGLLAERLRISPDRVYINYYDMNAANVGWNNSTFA
Procedure: The ability of bifunctional MIF-binding molecules to mediate the depletion of human MIF from cell culture was investigated. In these assays, human MIF was present at a concentration of 100 nM, and a sandwich ELISA assay was utilized to measure the concentration of human MIF remaining in the cell culture supernatant. The closely related bifunctional molecules MIF-GN3, MIF-PEG2-GN3, and MIF-PEG4-GN3 were used, as well as the structurally dissimilar molecule MIF-NVS-PEG3-GN3. […] Based on the ease of its synthesis and its efficacy in this experiment, MIF-GN3 was utilized for further studies. It was next investigated whether the MIF inhibitor 3w mediates MIF depletion from cell culture supernatant. […] When cells were treated with 3w, no depletion of exogenous MIF protein was observed after 24 hours (FIG. 128B).
Bifunctional molecules containing optimized ASGPR-binding motifs are also capable of mediating MIF depletion from cell culture supernatant (FIG. 129). The MIF-binding molecule MIF-AF1, which contains only a single ASGPR-binding sugar, was not effective at mediating depletion of MIF from supernatant at any concentration tested. It is hypothesized that this is due to the compound's low predicted affinity for ASGPR (μM range). […] At a concentration of either 200 nM or 1 μM, MIF-AF2 mediated nearly 100%/o depletion of MLF from the cell culture supernatant after 48 hours. […] In contrast to these molecules, which utilize optimized synthetic ASGPR ligands, the GalNAc-based molecule MIF-GN3 mediated only 67.0% and 56.0% removal of MIF from supernatant after 48 hours at concentrations of 1 μM and 200 nM, respectively. […] At a concentration of 40 nM (4.0 pmol of molecule), MIF-AF3 mediates the removal of 83.2% of MIF present in the cell culture supernatant, or 8.32 pmol of human MIF protein. Therefore, it was concluded that under the conditions of this experiment, MIF-AF3 mediates the depletion of 2.08 molar equivalents of MIF protein.

α-DNP antibody = assay: In vivo depletion of α-DNP antibody from serum in mice (ELISA); conditions: i.p. injection; FIG. 79A
Procedure: FIG. 94 illustrates that serum levels of α-DNP antibody decrease more rapidly following repeated treatment with DNP-GN3. Serum antibody levels were measured using an ELISA assay. Each experimental group contained three mice. Statistical differences in experiments involving in vivo depletion of α-DNP antibody were assessed by repeated measures two-way ANOVA with Tukey's tests for post-hoc comparison of simple effects between each of the treatment groups and PBS.
Single doses of DNP-GN3 were also found to be efficacious at mediating α-DNP antibody depletion, albeit less effectively than daily dosing (FIG. 96). […] Therefore, it was concluded that DNP-GN3 is able to mediate the depletion of a monoclonal antibody from serum, and functions across a wide range of target protein concentrations and dosing regimens.
DNP-GN3 was also found to be efficacious in depleting polyclonal α-DNP antibody from serum collected from mice immunized with DNP-keyhole limpet haemocyanin (KLH) (FIG. 97). […] Thus, the small molecule DNP-GN3 is not restricted in function to only monoclonal mouse antibodies, but is also effective at removing polyclonal α-DNP antibodies from circulation in mice.

Molecule: C=C1[C@@H](C)[C@H]2[C@H](Cc3ccccc3)NC(=O)[C@]23[C@H](OC(C)=O)/C=C/[C@@](C)(O)C(=O)[C@@H](C)C/C=C/[C@H]3[C@@H]1O [cytochalasin D]
toxicity of endocytosis inhibitors to cells (HepG2 cells [1]; HepG2 cells in the presence of MIF and MIF-GN3): toxic
effect of endocytic pathway inhibitors on intracellular fluorescence (DNP-GN3-mediated uptake) (HepG2 cells [2]): did not significantly decrease

Molecule: CC(C)CC(=O)N[C@H](C(=O)N[C@H](C(=O)N[C@@H](CC(C)C)[C@@H](O)CC(=O)N[C@@H](C)C(=O)N[C@@H](CC(C)C)[C@@H](O)CC(=O)O)C(C)C)C(C)C [Pepstatin] (Isovaleryl-VV[Sta]A[Sta]-OH)
inhibition of α-DNP antibody degradation (triplicate) (HepG2 cells [3]): did not significantly inhibit
inhibition of α-DNP antibody degradation (initial screening) (HepG2 cells [3]): not effective

depletion of human MIF from cell culture supernatant (human MIF; 24 hours): effective
Molecule: CC(=O)NC1C(OCCOCCOCCNC(=O)CCOCC(COCCC(=O)NCCOCCOCCOC2OC(CO)C(O)C(O)C2NC(C)=O)(COCCC(=O)NCCOCCOCCOC2OC(CO)C(O)C(O)C2NC(C)=O)NC(=O)CNC(=O)COCCOCCNC(=O)CCCOc2ccc3nc(-c4cn(-c5ccc(O)c(F)c5)nn4)ccc3c2)OC(CO)C(O)C1O (centres unmarked) [MIF-PEG2-GN3]
depletion of exogenous MIF protein from cell culture supernatant (human MIF; 24 hours, FIG. 128B): mediated MIF depletion across a range of concentrations

Molecule: OC[C@H]1O[C@@](CO)(O[C@H]2O[C@H](CO)[C@@H](O)[C@H](O)[C@H]2O)[C@@H](O)[C@@H]1O [sucrose]
effect of endocytic pathway inhibitors on MIF-GN3-mediated MIF endocytosis (HepG2 cells [1]): near background levels
effect of endocytic pathway inhibitors on intracellular fluorescence (DNP-GN3-mediated uptake) (HepG2 cells [2]): significantly decreased

Molecule: CC[C@@]1([C@@H]2O[C@@H]([C@H]3O[C@@](O)(CO)[C@H](C)C[C@@H]3C)C[C@@H]2C)CC[C@H]([C@]2(C)CC[C@]3(C[C@H](O)[C@@H](C)[C@@H]([C@@H](C)[C@@H](OC)[C@H](C)C(=O)O)O3)O2)O1 [monensin, Monensin]
effect of endocytic pathway inhibitors on MIF-GN3-mediated MIF endocytosis (HepG2 cells [1]): near background levels
effect of endocytic pathway inhibitors on intracellular fluorescence (DNP-GN3-mediated uptake) (HepG2 cells [2]): significantly decreased

Molecule: CC(=O)N[C@@H](CC(C)C)C(=O)N[C@@H](CC(C)C)C(=O)N[C@H](C=O)CCCNC(=N)N [leupeptin, Leupeptin]
inhibition of α-DNP antibody degradation (triplicate) (HepG2 cells [3]): shown to inhibit
inhibition of α-DNP antibody degradation (initial screening) (HepG2 cells [3]): effective

Molecule: CCN(c1nc(N)c(C(=O)N=C(N)N)nc1Cl)C(C)C [EIPA, 5-(N-Ethyl-N-isopropyl)amiloride]
effect of endocytic pathway inhibitors on MIF-GN3-mediated MIF endocytosis (HepG2 cells [1]): significantly inhibited uptake
effect of endocytic pathway inhibitors on intracellular fluorescence (DNP-GN3-mediated uptake) (HepG2 cells [2]): did not significantly decrease

Molecule: CC(C)C[C@H](NC(=O)[C@H]1O[C@@H]1C(=O)O)C(=O)NCCCCN=C(N)N [Compound E64, E64]
inhibition of α-DNP antibody degradation (triplicate) (HepG2 cells [3]): shown to inhibit
inhibition of α-DNP antibody degradation (initial screening) (HepG2 cells [3]): effective

Molecule: O=S(=O)(F)Cc1ccccc1 [PMSF, Phenylmethylsulfonyl fluoride]
inhibition of α-DNP antibody degradation (triplicate) (HepG2 cells [3]): did not significantly inhibit
inhibition of α-DNP antibody degradation (initial screening) (HepG2 cells [3]): not effective

Molecule: Aprotinin
inhibition of α-DNP antibody degradation (triplicate) (HepG2 cells [3]): did not significantly inhibit
inhibition of α-DNP antibody degradation (initial screening) (HepG2 cells [3]): not effective

Molecule: CCN(CC)CCCC(C)Nc1ccnc2cc(Cl)ccc12 (centres unmarked) [chloroquine, Chloroquine]
effect of endocytic pathway inhibitors on MIF-GN3-mediated MIF endocytosis (HepG2 cells [1]): near background levels
effect of endocytic pathway inhibitors on intracellular fluorescence (DNP-GN3-mediated uptake) (HepG2 cells [2]): significantly decreased

Molecule: CC(C)C[C@H](NC(=O)[C@@H](O)[C@H](N)Cc1ccccc1)C(=O)O [Bestatin]
inhibition of α-DNP antibody degradation (triplicate) (HepG2 cells [3]): did not significantly inhibit
inhibition of α-DNP antibody degradation (initial screening) (HepG2 cells [3]): not effective

Molecule: O=C(CCOCC(COCCC(=O)NCCOCCOCCO)(COCCC(=O)NCCOCCOCCO)NC(=O)CNC(=O)COCCOCCOCCNc1ccc([N+](=O)[O-])cc1[N+](=O)[O-])NCCOCCOCCO [DNP-(OH)3]
degradation of injected anti-DNP IgG antibodies in mouse serum (α-DNP antibody): did not show such effect

depletion of MIF from the cell culture supernatant (human MIF; 200 nM or 1 μM, after 48 hours, FIG. 129): ~100%
depletion of MIF from cell culture supernatant, optimized ASGPR-binding motifs (human MIF; FIG. 129): effective
Molecule: O=C(CCOCC(COCCC(=O)NCCOCCOCCOCCOC[C@]12CO[C@H](O1)[C@H](NC(=O)C(F)(F)F)[C@@H](O)[C@H]2O)NC(=O)CCCOc1ccc2nc(-c3cn(-c4ccc(O)c(F)c4)nn3)ccc2c1)NCCOCCOCCOCCOC[C@]12CO[C@H](O1)[C@H](NC(=O)C(F)(F)F)[C@@H](O)[C@H]2O [MIF-AF2]

depletion of MIF from cell culture supernatant, optimized ASGPR-binding motifs (human MIF; FIG. 129): not effective
Molecule: O=C(CCCOc1ccc2nc(-c3cn(-c4ccc(O)c(F)c4)nn3)ccc2c1)NCCOCCC(=O)NCCOCCOCCOCCOC[C@]12CO[C@H](O1)[C@H](NC(=O)C(F)(F)F)[C@@H](O)[C@H]2O [MIF-AF1]

Molecule: Cl.N [ammonium chloride, NH4Cl]
effect of endocytic pathway inhibitors on MIF-GN3-mediated MIF endocytosis (HepG2 cells [1]): near background levels

depletion of human MIF from cell culture supernatant (human MIF; 24 hours): effective
Molecule: CC(=O)NC1C(OCCOCCOCCNC(=O)CCOCC(COCCC(=O)NCCOCCOCCOC2OC(CO)C(O)C(O)C2NC(C)=O)(COCCC(=O)NCCOCCOCCOC2OC(CO)C(O)C(O)C2NC(C)=O)NC(=O)CNC(=O)COCCOCCOCCOCCNC(=O)CCCOc2ccc3nc(-c4cn(-c5ccc(O)c(F)c5)nn4)ccc3c2)OC(CO)C(O)C1O (centres unmarked) [MIF-PEG4-GN3]

depletion of human MIF from cell culture supernatant (human MIF; 24 hours): effective
Molecule: CC(=O)NC1C(OCCOCCOCCNC(=O)CCOCC(COCCC(=O)NCCOCCOCCOC2OC(CO)C(O)C(O)C2NC(C)=O)(COCCC(=O)NCCOCCOCCOC2OC(CO)C(O)C(O)C2NC(C)=O)NC(=O)CNC(=O)COCCOCCOCCn2cc(COCCOCCOc3ccc(N4Cc5ccc(O)cc5OC4=O)cc3)nn2)OC(CO)C(O)C1O (centres unmarked) [MIF-NVS-PEG3-GN3]

Molecule: Cl.NCCc1ccc(S(=O)(=O)F)cc1 [AEBSF, 4-(2-aminoethyl)benzeneulfonyl fluoride hydrochloride]
inhibition of α-DNP antibody degradation (triplicate) (HepG2 cells [3]): did not significantly inhibit
toxicity to cells (HepG2 cells [3]; HepG2 cells, pepstatin 5 μM after 24 hours, AEBSF 100 μM, ALLN 100 μM by 24 hours): toxic
inhibition of α-DNP antibody degradation (initial screening) (HepG2 cells [3]): not effective

amount of human MIF protein removed (human MIF; 40 nM (4.0 pmol of molecule)): 8.32 pmol
Molecule: O=C(CCOCC(COCCC(=O)NCCOCCOCCOCCOC[C@]12CO[C@H](O1)[C@H](NC(=O)C(F)(F)F)[C@@H](O)[C@H]2O)(COCCC(=O)NCCOCCOCCOCCOC[C@]12CO[C@H](O1)[C@H](NC(=O)C(F)(F)F)[C@@H](O)[C@H]2O)NC(=O)CCCOc1ccc2nc(-c3cn(-c4ccc(O)c(F)c4)nn3)ccc2c1)NCCOCCOCCOCCOC[C@]12CO[C@H](O1)[C@H](NC(=O)C(F)(F)F)[C@@H](O)[C@H]2O [MIF-AF3]
